Results taken from PubChem BioAssay AID328 (DTP/NCI, 2004).
Where “and” joins values, the source holds several entries; their conditions need not be identical. Identical values can stand only once. Inconclusive results and toxic doses are left out.

Test system: BDF1 mice, P388 leukemia ip, median survival T/C
Assay: NCI In Vivo Anticancer Drug Screen. Data for tumor model P388 Leukemia (intraperitoneal) in B6D2F1 (BDF1) mice
Details: endpoint: median survival time, higher = longer survival
In short: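 Mice carrying the transplantable tumour receive compound or vehicle. Survival is followed in each arm, and the treated measure is divided by the vehicle measure.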

[1] = dose: 50.0 mg/kg/injection, schedule: Q04DX003 (ip), vehicle: other
[2] = dose: 100.0 mg/kg/injection, schedule: Q04DX003 (ip), vehicle: other
[3] = dose: 50.0 mg/kg/injection, schedule: Q01DX009 (ip), vehicle: saline with Tween-80
[4] = dose: 100.0 mg/kg/injection, schedule: Q01DX009 (ip), vehicle: saline with Tween-80
[5] = dose: 200.0 mg/kg/injection, schedule: Q01DX009 (ip), vehicle: saline with Tween-80
[6] = dose: 100.0 mg/kg/injection, schedule: Q01DX009 (ip), vehicle: Klucel (hydroxypropylcellulose) (HPC)
[7] = dose: 200.0 mg/kg/injection, schedule: Q01DX009 (ip), vehicle: Klucel (hydroxypropylcellulose) (HPC)
[8] = dose: 6.25 mg/kg/injection, schedule: Q04DX003 (ip), vehicle: saline
[9] = dose: 25.0 mg/kg/injection, schedule: Q04DX003 (ip), vehicle: saline
[10] = dose: 100.0 mg/kg/injection, schedule: Q04DX003 (ip), vehicle: Klucel (hydroxypropylcellulose) (HPC)
[11] = dose: 200.0 mg/kg/injection, schedule: Q04DX003 (ip), vehicle: Klucel (hydroxypropylcellulose) (HPC)
[12] = dose: 400.0 mg/kg/injection, schedule: Q01DX009 (ip), vehicle: Klucel (hydroxypropylcellulose) (HPC)
[13] = dose: 400.0 mg/kg/injection, schedule: Q04DX003 (ip), vehicle: Klucel (hydroxypropylcellulose) (HPC)
[14] = dose: 100.0 mg/kg/injection, schedule: Q04DX003 (ip), vehicle: saline with Tween-80
[15] = dose: 200.0 mg/kg/injection, schedule: Q04DX003 (ip), vehicle: saline with Tween-80
[16] = dose: 400.0 mg/kg/injection, schedule: Q04DX003 (ip), vehicle: saline with Tween-80
[17] = dose: 25.0 mg/kg/injection, schedule: Q01DX009 (ip), vehicle: saline with Tween-80

## COc1cc(O)c2c(c1)C(=O)c1cc3c(c(O)c1C2=O)C(OC1OC(C)C(O)C(O)C1OC)C(OC)C(C)(O)C3=O (centres undefined)
dose: 25.9 mg/kg/injection, schedule: Q01DX009 (ip), vehicle: Klucel (hydroxypropylcellulose) (HPC)
  T/C: 116 % of control
dose: 37.5 mg/kg/injection, schedule: Q01DX010 (ip), vehicle: carboxymethylcellulose (CMC)
  T/C: 150 % of control
dose: 37.5 mg/kg/injection, schedule: Q01DX010 (ip), vehicle: saline
  T/C: 111 % of control and 115 % of control
dose: 43.2 mg/kg/injection, schedule: Q01DX009 (ip), vehicle: Klucel (hydroxypropylcellulose) (HPC)
  T/C: 121 % of control
dose: 75.0 mg/kg/injection, schedule: Q01DX010 (ip), vehicle: carboxymethylcellulose (CMC)
  T/C: 165 % of control
dose: 75.0 mg/kg/injection, schedule: Q01DX010 (ip), vehicle: saline
  T/C: 120 % of control and 122 % of control
dose: 108.0 mg/kg/injection, schedule: Q04DX003 (ip), vehicle: Klucel (hydroxypropylcellulose) (HPC)
  T/C: 114 % of control
dose: 120.0 mg/kg/injection, schedule: Q01DX009 (ip), vehicle: Klucel (hydroxypropylcellulose) (HPC)
  T/C: 106 % of control
dose: 180.0 mg/kg/injection, schedule: Q04DX003 (ip), vehicle: Klucel (hydroxypropylcellulose) (HPC)
  T/C: 110 % of control
dose: 300.0 mg/kg/injection, schedule: Q04DX003 (ip), vehicle: Klucel (hydroxypropylcellulose) (HPC)
  T/C: 99 % of control
dose: 500.0 mg/kg/injection, schedule: Q04DX003 (ip), vehicle: Klucel (hydroxypropylcellulose) (HPC)
  T/C: 97 % of control

## O=C(c1ccccc1)C1CC1c1ccccc1 (centres undefined)
dose: 100.0 mg/kg/injection, schedule: Q01DX001 (ip), vehicle: Klucel (hydroxypropylcellulose) (HPC)
  T/C: 120 % of control
dose: 200.0 mg/kg/injection, schedule: Q01DX001 (ip), vehicle: Klucel (hydroxypropylcellulose) (HPC)
  T/C: 104 % of control
dose: 400.0 mg/kg/injection, schedule: Q01DX001 (ip), vehicle: Klucel (hydroxypropylcellulose) (HPC)
  T/C: 100 % of control

## Oc1ccc2ccccc2c1Cc1c(O)ccc2ccccc12
[1]
  T/C: 95 % of control
[2]
  T/C: 95 % of control
dose: 200.0 mg/kg/injection, schedule: Q04DX003 (ip), vehicle: other
  T/C: 104 % of control

## Cc1onc(-c2ccccc2)c1NC(=O)OC(C)c1cccnc1 (centres undefined)
[3]
  T/C: 103 % of control
[4]
  T/C: 108 % of control
[5]
  T/C: 119 % of control

## O=[N+]([O-])c1ccc2c(c1)C(Br)c1ccccc1-2 (centres undefined)
dose: 50.0 mg/kg/injection, schedule: Q01DX009 (ip), vehicle: Klucel (hydroxypropylcellulose) (HPC)
  T/C: 90 % of control
[6]
  T/C: 118 % of control
[7]
  T/C: 118 % of control

## NNc1nncc2ccccc12
[8]
  T/C: 90 % of control
dose: 12.5 mg/kg/injection, schedule: Q04DX003 (ip), vehicle: saline
  T/C: 90 % of control
dose: 25.0 mg/kg/injection, schedule: Q01DX009 (ip), vehicle: saline
  T/C: 109 % of control
[9]
  T/C: 113 % of control
dose: 50.0 mg/kg/injection, schedule: Q01DX009 (ip), vehicle: saline
  T/C: 90 % of control
dose: 100.0 mg/kg/injection, schedule: Q04DX003 (ip), vehicle: saline
  T/C: 100 % of control

## CCCNC(=O)OCC#CC#CCOC(=O)NCCC
[6]
  T/C: 86 % of control
[10]
  T/C: 90 % of control
[7]
  T/C: 100 % of control
[11]
  T/C: 95 % of control
[12]
  T/C: 104 % of control
[13]
  T/C: 113 % of control

## COc1cc(C=Nc2cc(Cl)ccc2-n2ccnc2C)ccc1N(CCCl)CCCl
dose: 21.0 mg/kg/injection, schedule: Q04DX003 (ip), vehicle: saline with Tween-80
  T/C: 170 % of control
dose: 33.0 mg/kg/injection, schedule: Q04DX003 (ip), vehicle: saline with Tween-80
  T/C: 235 % of control
dose: 50.0 mg/kg/injection, schedule: Q04DX003 (ip), vehicle: saline with Tween-80
  T/C: 170 % of control
dose: 75.0 mg/kg/injection, schedule: Q04DX003 (ip), vehicle: saline with Tween-80
  T/C: 178 % of control

## Nc1ccc(C(=O)Nc2ccc(Nc3ccncc3)cc2)cc1
[6]
  T/C: 109 % of control
[10]
  T/C: 104 % of control
[7]
  T/C: 118 % of control
[11]
  T/C: 104 % of control
[12]
  T/C: 118 % of control
[13]
  T/C: 100 % of control

## C[C@H]1[C@H](O)[C@H]2[C@@H](CCC3=CC(=O)CC[C@@]32C)[C@@H]2CC[C@H](O)[C@@]12C
[4]
  T/C: 100 % of control
[14]
  T/C: 91 % of control
[5]
  T/C: 87 % of control and 100 % of control
[15]
  T/C: 95 % of control
dose: 400.0 mg/kg/injection, schedule: Q01DX009 (ip), vehicle: saline with Tween-80
  T/C: 87 % of control and 118 % of control
[16]
  T/C: 91 % of control

## Cc1ccc(NC(=O)OCCSC(=O)COc2ccc(Cl)cc2Cl)cc1
[14]
  T/C: 100 % of control
[15]
  T/C: 100 % of control
[16]
  T/C: 104 % of control

## N=C1CCCC1C(=S)SCCC(N)=O (centres undefined)
[3]
  T/C: 99 % of control
[4]
  T/C: 99 % of control
[5]
  T/C: 94 % of control

## CC(NC=O)C(=O)NC(CC(=O)O)C(=O)O (centres undefined)
dose: 50.0 mg/kg/injection, schedule: Q01DX005 (ip), vehicle: saline
  T/C: 95 % of control
dose: 100.0 mg/kg/injection, schedule: Q01DX005 (ip), vehicle: saline
  T/C: 93 % of control
dose: 200.0 mg/kg/injection, schedule: Q01DX005 (ip), vehicle: saline
  T/C: 89 % of control

## CC12OC1C(=O)c1ccccc1C2=O (centres undefined)
dose: 0.75 mg/kg/injection, schedule: Q01DX009 (ip), vehicle: Klucel (hydroxypropylcellulose) (HPC)
  T/C: 87 % of control
dose: 1.5 mg/kg/injection, schedule: Q01DX009 (ip), vehicle: Klucel (hydroxypropylcellulose) (HPC)
  T/C: 100 % of control
dose: 2.5 mg/kg/injection, schedule: Q01DX009 (ip), vehicle: Klucel (hydroxypropylcellulose) (HPC)
  T/C: 89 % of control
dose: 3.0 mg/kg/injection, schedule: Q01DX009 (ip), vehicle: Klucel (hydroxypropylcellulose) (HPC)
  T/C: 95 % of control
dose: 5.0 mg/kg/injection, schedule: Q04DX003 (ip), vehicle: Klucel (hydroxypropylcellulose) (HPC)
  T/C: 92 % of control
dose: 10.0 mg/kg/injection, schedule: Q04DX003 (ip), vehicle: Klucel (hydroxypropylcellulose) (HPC)
  T/C: 92 % of control

## COc1cc(Br)c(CCC#N)cc1OC
[3]
  T/C: 91 % of control
[4]
  T/C: 110 % of control
[5]
  T/C: 92 % of control

## NC(=O)c1cc(OCc2ccccc2)nc2nc(Cl)nc(N)c12
[3]
  T/C: 100 % of control
[4]
  T/C: 96 % of control
[5]
  T/C: 110 % of control

## O=[N+]([O-])c1ccc([I+]c2ccccc2)cc1
dose: 1.5 mg/kg/injection, schedule: Q04DX003 (ip), vehicle: saline sonified
  T/C: 100 % of control
dose: 5.5 mg/kg/injection, schedule: Q01DX009 (ip), vehicle: saline with Tween-80
  T/C: 150 % of control
dose: 8.25 mg/kg/injection, schedule: Q01DX009 (ip), vehicle: saline with Tween-80
  T/C: 154 % of control
dose: 12.0 mg/kg/injection, schedule: Q04DX003 (ip), vehicle: saline sonified
  T/C: 118 % of control
dose: 16.5 mg/kg/injection, schedule: Q04DX003 (ip), vehicle: saline
  T/C: 150 % of control
[17]
  T/C: 154 % of control
[3]
  T/C: 150 % of control
[4]
  T/C: 158 % of control
dose: 100.0 mg/kg/injection, schedule: Q04DX003 (ip), vehicle: saline sonified
  T/C: 150 % of control

## FC(F)(F)c1ccc2c(c1)N(CCCN1CCN(CCOc3ccccc3)CC1)c1ccccc1S2
dose: 6.25 mg/kg/injection, schedule: Q04DX003 (ip), vehicle: saline with Tween-80
  T/C: 96 % of control and 115 % of control
dose: 12.5 mg/kg/injection, schedule: Q04DX003 (ip), vehicle: saline with Tween-80
  T/C: 93 % of control and 115 % of control
dose: 25.0 mg/kg/injection, schedule: Q04DX003 (ip), vehicle: saline with Tween-80
  T/C: 114 % of control and 122 % of control

## CCOC(=O)c1ccccc1OP(=O)(N(C)C)N(C)C
[3]
  T/C: 106 % of control
[5]
  T/C: 122 % of control

## OCCN1CCN(CC/C=C2\c3ccccc3COc3ccc(Cl)cc32)CC1
[8]
  T/C: 107 % of control
[9]
  T/C: 109 % of control

## CCN1CCC(OC(=O)c2ccccc2)(c2nccc3ccccc23)CC1
dose: 12.5 mg/kg/injection, schedule: Q01DX009 (ip), vehicle: saline with Tween-80
  T/C: 102 % of control
[17]
  T/C: 111 % of control
[3]
  T/C: 124 % of control

## c1cc2c3c(c1)ncn3CCC2
dose: 25.0 mg/kg/injection, schedule: Q04DX003 (ip), vehicle: other
  T/C: 100 % of control
[1]
  T/C: 100 % of control
[2]
  T/C: 95 % of control
